# Legend:
# [1] = Stability in liver microsome of dogs; assay type: in vitro ADME; settings: liver microsomes; Dog liver microsome 0.5 mg protein/mL, compound 1 μM, 37° C.
# Description: Assay 1: Stability assessment of the compounds of the present invention in liver microsome of mice and dogs
# Test substances: the compounds of the present invention, wherein the structures and preparations thereof were as described above.
# The composition of the incubation system:
# Preparation of Test Substances:
# An appropriate amount of the compound was accurately weighed and dissolved in DMSO to prepare a 5.0 mM stock solution. The 5.0 mM stock solution was diluted to 1.0 mM with DMSO, and finally diluted with water to a 10 μM test substance working solution for use (the DMSO content in the reaction system was 0.1%).
# (1) The liver microsome (20 mg protein/mL) was taken out from the −80° C. refrigerator, pre-incubated at 37° C. with a water-bathing constant temperature vibrator for 3 minutes, and melted for use.
# (2) A mixed solution of the incubation system (excluding compounds and β-NADPH) according to the above “composition of the incubation system” for the assay was prepared, and pre-incubated at 37° C. with a water-bathing constant temperature vibrator for 2 minutes.
# (3) Control group (excluding β-NADPH): 30 μL of water and 30 μL of compound working solution (10 μM) were added to 240 μL of the mixed solution of the incubation system of step (2), and vortexed for 30 seconds to mix well. The total reaction volume was 300 μL. A duplicate sample was prepared. The sample was incubated at 37° C. with a water-bathing constant temperature vibrator. The timekeeping began and the sampling time points were set at 0 minute and 60 minutes.
# (4) Sample group: 70 μL of β-NADPH solution (10 mM) and 70 μL of compound working solution (10 μM) were added to 560 μL of the mixed solution of step (2). The total reaction volume was 700 μL. The resulting mixture was vortexed for 30 seconds to mix well. A duplicate sample was prepared. The sample was incubated at 37° C. with a water-bathing constant temperature vibrator. The timekeeping began and the sampling time points were set at 0 minute, 5 minutes, 10 minutes, 20 minutes, 30 minutes, and 60 minutes after timekeeping.
# (5) After vortexing for 3 minutes, the sample was centrifuged at 4000 rpm for 10 minutes.
# (6) 50 μL of the supernatant was taken and 150 μL of water was added. The resulting mixture was vortexed to mix well, and analyzed by LC/MS/MS.
# The half-life (t1/2) and clearance rate (Cl) were calculated using the following first-order kinetic formula:
# Vd=1/protein content in liver microsome
# Note: k was the slope of the logarithm of the remaining amount of the compound versus time, and Vd was the apparent distribution volume.
# [2] = biological target: T1, H1299 cell pMer (Homo sapiens, UniProt Q12866); experiment: Inhibitory activity on the cell pMer (Western Blot); assay type: cell-based; settings: H1299 cells, compound 0.35, 1.1, 3.3, 10 nM, Human MerMab 200 ng/mL
# T1 construct: The H1299 cells were inoculated in a 6-well plate; endogenous in cells; host or cells: H1299
# T1 sequence (Q12866 21-999): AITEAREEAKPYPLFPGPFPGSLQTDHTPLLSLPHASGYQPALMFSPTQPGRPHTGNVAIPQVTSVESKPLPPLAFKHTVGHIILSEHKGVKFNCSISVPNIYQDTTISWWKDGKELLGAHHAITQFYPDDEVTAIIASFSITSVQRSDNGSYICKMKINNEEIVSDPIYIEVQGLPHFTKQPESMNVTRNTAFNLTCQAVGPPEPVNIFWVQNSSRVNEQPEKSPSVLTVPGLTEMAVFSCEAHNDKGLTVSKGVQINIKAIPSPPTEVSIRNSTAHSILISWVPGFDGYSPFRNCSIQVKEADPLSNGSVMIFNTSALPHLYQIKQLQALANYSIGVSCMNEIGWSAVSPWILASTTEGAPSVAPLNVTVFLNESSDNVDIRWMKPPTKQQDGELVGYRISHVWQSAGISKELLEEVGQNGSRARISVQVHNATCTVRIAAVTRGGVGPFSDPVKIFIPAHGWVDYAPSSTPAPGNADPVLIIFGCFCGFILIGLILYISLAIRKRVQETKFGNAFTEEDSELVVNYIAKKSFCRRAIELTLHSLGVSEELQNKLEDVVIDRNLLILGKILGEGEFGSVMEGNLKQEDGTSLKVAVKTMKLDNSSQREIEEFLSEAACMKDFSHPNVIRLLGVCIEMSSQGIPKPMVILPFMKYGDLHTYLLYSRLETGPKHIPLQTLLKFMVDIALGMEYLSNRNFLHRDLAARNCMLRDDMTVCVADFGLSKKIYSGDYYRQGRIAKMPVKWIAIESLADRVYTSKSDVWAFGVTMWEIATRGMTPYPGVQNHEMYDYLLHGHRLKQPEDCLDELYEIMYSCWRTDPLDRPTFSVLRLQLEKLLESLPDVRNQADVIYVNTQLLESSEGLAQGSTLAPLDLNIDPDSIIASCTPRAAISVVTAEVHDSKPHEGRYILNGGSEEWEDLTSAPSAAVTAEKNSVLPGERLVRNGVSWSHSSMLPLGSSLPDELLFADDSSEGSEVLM
# Description: Assay 6: Test for Inhibitory Activities of the Compounds of the Present Invention on the Cell pMer
# H1299 is a non-small cell lung cancer cell.
# Test substances: the compounds of the present invention, wherein the structures thereof were as described above.
# Test equipment: protein electrophoresis apparatus (manufactured by Bio Rad), transfer unit (manufactured by Bio Rad), exposure unit (manufactured by Tanon), CO2 cell incubator (manufactured by Thermo).
# The H1299 cells were inoculated in a 6-well plate (containing 10% FBS 1640 medium, 5×10^5 cells per well), and adherent cells were cultivated at 37° C. in a 5% CO2 condition for 18 hours. The cells were starved overnight. Different concentrations of compounds were added. The final compound concentrations were 0.35, 1.1, 3.3 and 10 nM, and the final DMSO content was 1‰. The negative control wells contained the medium containing 1‰ DMSO. After incubating at 37° C. in a 5% CO2 condition for 60 minutes, Human MerMab (R&D, final concentration 200 ng/mL) was added to each well. After further incubating for 60 minutes, the cell total protein was extracted for Western Blot and the IC50 values were calculated using GraphPad 5.0 software. The inhibitory activity of the compound on the cell pMer was examined.
SMILES,half-life at 1 μM [1] [h],microsomal CLint at 1 μM [1] [µL/min/mg],IC50 [2] [nM]
"COc1cc2nccc(Oc3ccc(NC(=O)c4cn(C5CC5)nc(-c5ccc(F)cc5)c4=O)cn3)c2cc1OC [Compound 43, 2-cyclopropyl-N-(6-((6,7-dimethoxyquinolin-4-yl)oxy)pyridin-3-yl)-6-para-fluorophenyl-5-oxo-2,5-dihydropyridazine-4-carboxamide]",2.4,9.6,< 1.1
"COc1cc2nccc(Oc3cnc(NC(=O)c4cn(C5CC5)nc(-c5ccc(F)cc5)c4=O)nc3)c2cc1OC [Compound 45, 2-cyclopropyl-N-(5-((6,7-dimethoxyquinolin-4-yl)oxy)pyrimidine-2-yl)-6-(4-fluorophenyl)-5-oxo-2,5-dihydropyridazine-4-carboxamide]",9.63,2.4,< 1.1
"COc1cc2nccc(Oc3ccc(NC(=O)c4nn(C5CC5)cc(-c5ccc(C)cc5)c4=O)nc3)c2cc1OC [Compound 46, 1-cyclopropyl-N-(5-((6,7-dimethoxyquinolin-4-yl)oxy)pyridin-2-yl)-4-oxo-5-p-tolyl-1,4-dihydropyridazine-3-carboxamide]",0.208,111,< 0.37

# Reference: patent publication US20220073496A1, “NOVEL QUINOLINE DERIVATIVE INHIBITOR” (Nanjing Transthera Biosciences Co., Ltd., priority 2018, published 2022)
